Reference: US20240400584A1, “COMPOUNDS AND METHODS FOR MODULATING SPLICING” (REMIX THERAPEUTICS INC., priority 2021, published 2024)
Like-named read-outs stand apart in the source and are kept apart here.

What was measured:
Format in all cases: cell-based, human
HTT = assay: Gene panel canonical junction qPCR assay, HTT CJ mRNA (Table 7); details: read-out: HTT CJ mRNA decrease IC50
In short: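 A673/K562 cells + cpd → lysate → cDNA → qPCR, CY5 5′ nuclease probe set overlapping canonical junction. Normalized to GAPDH/GUSB/PPIA and DMSO via ΔΔCt, RQ → % response over fixed ΔCt window. IC50 = 50% CJ decrease, 4PL fit.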

[1] = tested on: HiBit-tagged HTT in K562 cells; assay: HiBiT protein abundance assay, HTT; details: HiBiT-modified K562 cells, 24 hours, luminescence
Description: (§1) Compounds described herein were used to screen for effects on quantitative protein abundance using a HiBit assay system (Promega). Quantitative protein abundance was determined by measuring the protein levels of HiBit-tagged protein targets expressed in cell culture via luminescence using the Nano-Glo HiBiT Lytic Detection System, which uses a split complementation assay format to reconstitute NanoBiT enzyme to generate a luminescent signal. A protein abundance assay was developed such that endogenous protein targets could be modified with the HiBiT peptide tag and their abundance could be assessed after compound treatment. Briefly, K562 cell lines containing a HiBiT-modification were treated with various compounds described herein (e.g., compounds of Formulas (I)). After treatment for 24 hours, the protein abundance of a specific target was determined by measuring luminescence.
(§2) Cells were maintained in IMDM with 10% FBS. Before the assay, cells were diluted with […] growth media (IMDM+[…] media) and were seeded in a 384-well plate at a density of 10000 cells/well (for each cell line listed in Table 8). Each compound was prepared as a 10-point 3-fold serial dilution in DMSO with the top dose at a final concentration of 10 μM in the well. Unmodified K562 cells were added at the previously specified density with DMSO to serve as an assay baseline and positive control (PC) and DMSO only with the respective modified cell lines was added to the negative control (NC) columns. Final DMSO concentration was kept at or below 0.25% o. Treated cell plates were placed in an incubator at 37° C. with […] for 24 hours. After 24 hours, 25 μL of Complete HiBit Lytic reagent was added to each well at room temperature (e.g. one plate requiring 10 mL Lytic Buffer, 100 μL LgBiT Protein, 200 μL Lytic Substrate), shaken for 5 minutes at 600 RPM, then left to sit for 10 minutes for signal to stabilize before reading on a Spark Cyto plate reader (Tecan) with a 500 ms measurement time.
(§3) To determine compound effects on protein abundance of each target in Table 9, the percent response for each respective cell line was calculated at each compound concentration as follows:
(§4) For the normalized response at each concentration, a four-parameter logistical regression was fit to the data and the response was interpolated at the […] to determine a concentration for protein abundance at 50% o (IC50) the untreated control.

[2] = tested on: HiBit-tagged MYB in K562 cells; assay: HiBiT protein abundance assay, MYB; details: HiBiT-modified K562 cells, 24 hours, luminescence
Description: as §1, §2, §3, §4

Compound	IC50 (HTT; Homo sapiens)	IC50 [1]	IC50 [2]	IC50 (HTT)
Cc1ncc(-c2ccc3c(c2)COc2nc(O[C@@H]4C[C@H]5C[C@@H](C4)N5)ccc2-3)s1 [Compound 208]	< 0.1 µM	< 0.1 µM	0.1 to 1 µM	–
c1cc2c(cc1-c1cn[nH]c1)COc1nc(O[C@@H]3C[C@H]4CC[C@@H](C3)N4)ccc1-2 [Compound 218]	< 0.1 µM	0.1 to 1 µM	< 0.1 µM	–
CN(c1ccc2c(c1)OCc1cc(-c3cn[nH]c3)ccc1-2)[C@@H]1C[C@H]2CC[C@@H](C1)N2 [Compound 104]	> 10 µM	1 to 10 µM	1 to 10 µM	–
CC(C)Oc1cnnc(-c2ccc3c(c2)COc2nc(N4CCC(NC(C)(C)C)C4)ccc2-3)c1 (stereo not drawn) [Compound 286]	> 10 µM	1 to 10 µM	1 to 10 µM	–
CN(c1ccc2c(n1)OCc1cc(-n3cccn3)ccc1-2)C1CC(C)(C)NC(C)(C)C1 [Compound 148]	1 to 10 µM	1 to 10 µM	1 to 10 µM	–
CN(c1ccc2c(n1)OCc1cc(-c3cnc(=O)[nH]c3)ccc1-2)[C@@H]1C[C@H]2CC[C@@H](C1)N2 [Compound 161]	> 10 µM	> 10 µM	> 10 µM	–
CN(c1ccc2c(n1)OCc1cc(-n3ccnn3)ccc1-2)[C@@H]1C[C@H]2CC[C@@H](C1)N2 [Compound 152]	0.1 to 1 µM	< 0.1 µM	0.1 to 1 µM	–
CN(c1ccc2c(n1)OCCc1cc(-c3cn[nH]c3)ccc1-2)[C@@H]1C[C@H]2CC[C@@H](C1)N2 [Compound 146]	1 to 10 µM	1 to 10 µM	1 to 10 µM	–
CN(c1ccc2c(n1)OCc1cc(-c3ccc(=O)[nH]c3)ccc1-2)[C@@H]1C[C@H]2CC[C@@H](C1)N2 [Compound 157]	1 to 10 µM	0.1 to 1 µM	1 to 10 µM	–
COc1cc(-c2ccc3c(c2)COc2nc(N(C)[C@@H]4C[C@H]5CC[C@@H](C4)N5)ccc2-3)ccn1 [Compound 156]	< 0.1 µM	< 0.1 µM	0.1 to 1 µM	–
CN(c1ccc2c(n1)OCc1cc(-c3cn[nH]c3)ccc1-2)C1CCNCC1 [Compound 116]	0.1 to 1 µM	0.1 to 1 µM	1 to 10 µM	–
CN(c1ccc2c(n1)OCc1cc(-c3ccn(C)c(=O)c3)ccc1-2)[C@@H]1C[C@H]2CC[C@@H](C1)N2 [Compound 153]	< 0.1 µM	< 0.1 µM	< 0.1 µM	–
c1cc2c(cc1-c1cn[nH]c1)COc1nc(N[C@@H]3C[C@H]4CC[C@@H](C3)N4)cnc1-2 [Compound 143]	0.1 to 1 µM	0.1 to 1 µM	1 to 10 µM	–
CN(c1ccc2c(n1)OCc1cc(-c3cnn(C)c(=O)c3)ccc1-2)[C@@H]1C[C@H]2CC[C@@H](C1)N2 [Compound 160]	< 0.1 µM	< 0.1 µM	0.1 to 1 µM	–
c1cc2c(cc1-c1cn[nH]c1)COc1nc(N3CCC34CCNC4)ccc1-2 (stereo not drawn) [Compound 207]	> 10 µM	1 to 10 µM	1 to 10 µM	–
C[C@H]1C[C@H](N(C)c2ccc3c(c2)OCc2cc(-c4cn[nH]c4)ccc2-3)CCN1 [Compound 102]	> 10 µM	1 to 10 µM	1 to 10 µM	–
CN(c1ccc2c(c1)OCc1cc(-n3cccn3)ccc1-2)[C@@H]1C[C@H]2CC[C@@H](C1)N2 [Compound 105]	> 10 µM	1 to 10 µM	1 to 10 µM	–
COc1cc(-c2ccc3c(c2)COc2nc(N4CCC(N(C)C)C4)ccc2-3)cnn1 (stereo not drawn) [Compound 306, 1-[8-(6-methoxypyridazin-4-yl)-6H-isochromeno[3,4-b]pyridin-3-yl]-N,N-dimethylpyrrolidin-3-amine]	0.1 to 1 µM	0.1 to 1 µM	1 to 10 µM	–
CN(c1cnc2c(n1)OCc1cc(-c3cn[nH]c3)ccc1-2)C1CC(C)(C)NC(C)(C)C1 [Compound 142]	–	0.1 to 1 µM	1 to 10 µM	0.1 to 1 µM
CN(c1ccc2c(n1)OCc1cc(-c3cn[nH]c3)ccc1-2)C1CC(C)(C)NC(C)(C)C1 [Compound 147]	0.1 to 1 µM	0.1 to 1 µM	0.1 to 1 µM	–
CN(c1ccc2c(n1)COc1cc(-n3cccn3)ccc1-2)[C@@H]1C[C@H]2CC[C@@H](C1)N2 [Compound 124]	1 to 10 µM	1 to 10 µM	1 to 10 µM	–
CN(c1ccc2c(n1)OCc1cc(-c3cc(=O)n(C)cn3)ccc1-2)[C@@H]1C[C@H]2CC[C@@H](C1)N2 [Compound 162]	< 0.1 µM	< 0.1 µM	0.1 to 1 µM	–
COc1cc(-c2ccc3c(c2)COc2nc(N4CCC(NC5(C)CCC5)C4)ccc2-3)cnn1 (stereo not drawn) [Compound 285, 1-[8-(6-methoxypyridazin-4-yl)-6H-isochromeno[3,4-b]pyridin-3-yl]-N-(1-methylcyclobutyl)pyrrolidin-3-amine]	< 0.1 µM	0.1 to 1 µM	0.1 to 1 µM	–
COc1cc(-c2ccc3c(c2)COc2nc(N4CCN[C@@H](C)C4)ccc2-3)cnn1 [Compound 287]	0.1 to 1 µM	0.1 to 1 µM	0.1 to 1 µM	–
CC1(C)CC(Nc2ccc3c(n2)COc2cc(-n4cccn4)ccc2-3)CC(C)(C)N1 [Compound 134]	1 to 10 µM	1 to 10 µM	1 to 10 µM	–
CN(c1ccc2c(n1)OCCc1cc(-c3cn[nH]c3)ccc1-2)C1CC(C)(C)NC(C)(C)C1 [Compound 145]	> 10 µM	1 to 10 µM	1 to 10 µM	–
COc1cc(-c2ccc3c(c2)COc2nc(O[C@@H]4C[C@H]5COC[C@@H](C4)N5)ccc2-3)cnn1 [Compound 290, (exo)-7-{[8-(6-methoxypyridazin-4-yl)-6H-isochromeno[3,4-b]pyridin-3-yl]oxy}-3-oxa-9-azabicyclo[3.3.1]nonane]	< 0.1 µM	< 0.1 µM	0.1 to 1 µM	–
CN(c1ccc2c(n1)OCc1cc(-n3cccn3)ccc1-2)[C@@H]1C[C@H]2CC[C@@H](C1)N2 [Compound 149]	0.1 to 1 µM	0.1 to 1 µM	0.1 to 1 µM	–
COc1cc(-c2ccc3c(c2)COc2nc(N4CCC(N5CCCC5)C4)ccc2-3)cnn1 (stereo not drawn) [Compound 305]	0.1 to 1 µM	0.1 to 1 µM	1 to 10 µM	–
